Measured values reported in ChEMBL document CHEMBL4616643, “Cytotoxic and anti-inflammatory effects of lignans and diterpenes from Cupressus macrocarpa” (Bioorg Med Chem Lett, 2020).
In brackets after ≈: the same amount, converted by molar mass.

Assays:
MDA-MB-231 = assay: Antiproliferative activity against human MDA-MB-231 cells assessed as inhibition of cell viability by MTT assay; format: functional, cell-based
A549 = assay: Antiproliferative activity against human A549 cells assessed as inhibition of cell viability by MTT assay; format: functional, cell-based
HepG2 = assay: Antiproliferative activity against human HepG2 cells assessed as inhibition of cell viability by MTT assay; format: functional, cell-based
Neutrophil [1] = assay: Anti-inflammatory activity against human neutrophils assessed as inhibition of fMLF/CB-induced superoxide anion generation preincubated for 5 mins followed by fMLF addition after priming with CB for 3 mins and measured after 10 mins by spectrophotometric analysis; format: functional, cell-based
Neutrophil [2] = assay: Anti-inflammatory activity against human neutrophils assessed as inhibition of fMLF/CB-induced superoxide anion generation at 10 uM preincubated for 5 mins followed by fMLF addition after priming with CB for 3 mins and measured after 10 mins by spectrophotometric analysis relative to control; format: functional
Neutrophil [3] = assay: Anti-inflammatory activity against human neutrophils assessed as inhibition of fMLF/CB-induced elastase release preincubated for 5 mins followed by fMLF addition after priming with CB for 3 mins and measured after 10 mins by spectrophotometric analysis; format: functional, cell-based
Neutrophil [4] = assay: Anti-inflammatory activity against human neutrophils assessed as inhibition in fMLF/CB-induced elastase release at 10 uM preincubated for 5 mins followed by fMLF addition after priming with CB for 3 mins and measured after 10 mins by spectrophotometric analysis relative to control; format: functional
[5] = Homo sapiens, MDA-MB-231, read-out: IC50
[6] = Homo sapiens, A549, read-out: IC50
[7] = Homo sapiens, HepG2, read-out: IC50

IC50 (MDA-MB-231; [5]) [µg/mL] | IC50 (A549; [6]) [µg/mL] | Compound | inhibition at 10 µM (Neutrophil [2]) [%] | inhibition at 10 µM (Neutrophil [4]) [%] | other results
14.1 (≈ 46.3 µM) |  | C=C(C=O)CC[C@H]1C(=C)CC[C@@H]2[C@]1(C)CCC[C@]2(C)C(=O)O |  |  | 
0.6 (≈ 1.1 µM) | 0.057 (≈ 0.105 µM) | COc1cccc2c1C(=O)c1c(O)c3c(c(O)c1C2=O)C[C@@](O)(C(=O)CO)C[C@@H]3O[C@H]1C[C@H](N)[C@H](O)[C@H](C)O1 [DOXORUBICIN] |  |  | 
 |  | COc1cc(C[C@H]2COC(=O)[C@@H]2Cc2ccc(O)c(OC)c2)ccc1O [MATAIRESINOL] | 95.2 | 61.9 | IC50 (HepG2; [7]): 15.1 µg/mL (≈ 42.1 µM); IC50 (Neutrophil [1]): 2.7 µM; IC50 (Neutrophil [3]): 6.6 µM
 |  | C=C1CC[C@@H]2[C@](C)(CCC[C@]2(C)C(=O)O)[C@H]1CC/C(C)=C/CO [ISOCUPRESSIC ACID] | 78 | 19.9 | IC50 (HepG2; hepg2): Not Active; IC50 (MDA-MB-231; mda-mb-231): Not Active; IC50 (A549; a549): Not Active; IC50 (Neutrophil [1]): 4.8 µM
14.8 (≈ 53.5 µM) |  | C=C(C=O)CC[C@H]1C(=C)CC[C@@H]2[C@]1(C)CCC[C@@]2(C)O |  |  | 
 |  | C=C1CC[C@@H]2[C@](C)(CO)CCC[C@@]2(C)[C@@H]1CCC(C)=O | 33.5 | 15.7 | 
1.1 (≈ 2.95 µM) | 0.8 (≈ 2.15 µM) | COc1cc(C[C@H]2C(=O)OC[C@@H]2Cc2ccc(OC)c(OC)c2)ccc1O [ARCTIGENIN] |  |  | IC50 (HepG2; [7]): 2.8 µg/mL (≈ 7.52 µM)
 |  | C=C1CC[C@H]2[C@@](C)(CO)CCC[C@]2(C)[C@H]1CC/C(C)=C/CO | 50.7 | 22.3 | IC50 (Neutrophil [1]): 9.6 µM
14.8 (≈ 40.8 µM) | 8.9 (≈ 24.6 µM) | C=C1CC[C@@H]2[C@](C)(CCC[C@]2(C)C(=O)O)[C@H]1CC/C(C)=C/COC(C)=O |  |  | 
19.9 (≈ 62.1 µM) | 19.8 (≈ 61.8 µM) | C=C(CC[C@H]1C(=C)CC[C@H]2[C@@](C)(CO)CCC[C@]12C)C(=O)CO |  |  | 

Compound | IC50 (MDA-MB-231; [5]) [µg/mL] | IC50 (A549; [6]) [µg/mL] | inhibition at 10 µM (Neutrophil [2]) [%] | inhibition at 10 µM (Neutrophil [4]) [%] | other results
COc1cc([C@@H]2c3cc4c(cc3C[C@H]3COC(=O)[C@@H]32)OCO4)cc(OC)c1OC [DESOXYPODOPHYLLOTOXIN] | 0.07 (≈ 0.176 µM) | 0.004 (≈ 0.01 µM) |  |  | IC50 (HepG2; [7]): 14.5 µg/mL (≈ 36.4 µM)
